Test results: patent US20110305673A1, “COMPOSITIONS AND METHODS FOR TISSUE REPAIR” (The University of Vermont and State Agriculture College, priority 2008, published 2011)

Columns and labels:
[1] = system: cardiac progenitor cells; experiment: Signal transduction inhibitor study on CPC number (48 hrs); type: cell-based, rat; conditions: for effect on number/growth of CPCs in MSC conditioned media: inhibitor 10 μM; for effect on number/growth of CPCs in MSC conditioned media / cell number ratio to control cell number: 48 hrs; for cell number ratio to control cell number: CPCs in MSC CdM
Protocol: Serum-free conditioned media was prepared as described previously (Kiel et al., Cell 2005; 121:1109-1121). cardiac progenitor cells and cardiac fibroblasts were plated at 500 cells/cm^2 and cultured in their growth medium. Three days after plating the medium was removed, the wells were washed twice with PBS, and the cells were then exposed to conditioned media or to fresh serum-free medium (α-MEM). For time course proliferation studies, the conditioned media and serum-free medium were changed every 2 days. […] All inhibitors were from Calbiochem (EMD Chemicals, San Diego, Calif.) and were dissolved in dimethyl sulfoxide (DMSO). Cardiac progenitor cells were cultured in conditioned media with the inhibitors or with the equivalent volume of DMSO as a control for 48 hrs. In the protection study, 3 days after plating, the medium was replaced with either the conditioned media or serum-free medium and the cells were exposed to hypoxia in a specialized incubator (1% oxygen) for 48 hours. The hypoxia incubator was a model that measured both CO2 and O2 (Thermo Electron, Form a Series II, model 3130). Oxygen was maintained at 1% by the injection of nitrogen gas and was monitored continuously. Cell numbers were quantified by the fluorescent labeling of nucleic acids (CyQuant dye; Molecular Probes, Carlsbad, Calif.) and with a microplate fluorescence reader (FLX800; Bio-Tek Instruments Inc., Winooski, Vt.) set to 480 nm excitation and 520 nm emission. Each experiment was repeated a minimum of 3 times.

[2] = system: cardiac progenitor cells; experiment: CPC protection study under hypoxia (1% oxygen, 48 hours); type: cell-based, rat; conditions: inhibitor 10 μM
Protocol: Serum-free conditioned media was prepared as described previously (Kiel et al., Cell 2005; 121:1109-1121). cardiac progenitor cells and cardiac fibroblasts were plated at 500 cells/cm^2 and cultured in their growth medium. Three days after plating the medium was removed, the wells were washed twice with PBS, and the cells were then exposed to conditioned media or to fresh serum-free medium (α-MEM). For time course proliferation studies, the conditioned media and serum-free medium were changed every 2 days. In the signal transduction inhibitor studies the following pharmacological inhibitors, were used (10 micromolar): AG490, an inhibitor of Jak2/STAT3 pathway; Stattic, a specific inhibitor of STAT3 phosphorylation at Tyr^705; LY294002, inhibitor of phosphatidylinositol 3-kinase (PI3K)/Akt pathway; and PD98059, extracellular signal-regulated kinase (ERK) inhibitor. […] The hypoxia incubator was a model that measured both CO2 and O2 (Thermo Electron, Form a Series II, model 3130). Oxygen was maintained at 1% by the injection of nitrogen gas and was monitored continuously. Cell numbers were quantified by the fluorescent labeling of nucleic acids (CyQuant dye; Molecular Probes, Carlsbad, Calif.) and with a microplate fluorescence reader (FLX800; Bio-Tek Instruments Inc., Winooski, Vt.) set to 480 nm excitation and 520 nm emission. […]

[3] = system: CD133dMSCs; experiment: Puromycin kill curve; type: cell-based, human; conditions: after 3 days
Protocol: Based on observations that CD133dMSCs increased their secretion of SDF-1 in culture following exposure to hypoxia and mRNA expression in vivo after injection into stroke penumbra, the role of SDF-1 in mediating the benefits of CD133dMSC CdM was explored using lentiviral shRNA knockdown of SDF-1 with puromycin-selectable vectors. In preliminary studies, kill curves were performed with transduced CD133dMSCs incubated in puromycin-containing culture medium to remove cells that were not transduced by lentivirus. […] Following lentiviral transduction of expanded CD133dMSCs from a single donor with a scrambled shRNA vector, 2 different shRNAs vectors against SDF-1, or a control selectable GFP vector, ELISAs and FACS assays were performed to characterize the cells.

O=[N+]([O-])c1ccc2c(c1)S(=O)(=O)C=C2 [Stattic]
effect on number/growth of CPCs in MSC conditioned media [1]: completely blocked | effect on protective effects of conditioned media during hypoxia [2]: blocked the protective effects

COc1ccc(C[C@H](N)C(=O)N[C@H]2[C@@H](O)[C@H](n3cnc4c(N(C)C)ncnc43)O[C@@H]2CO)cc1 [puromycin]
concentration sufficient to remove all untransduced CD133dMSCs [3]: 2 µg/mL

N#C/C(=C/c1ccc(O)c(O)c1)C(=O)NCc1ccccc1 [AG490]
cell number ratio to control cell number ([1]; 1 μM): 96.3±0.9% | cell number ratio to control cell number ([1]; 5 μM): 89.5±0.9% | effect on CPC numbers in growth medium ([1]; 10 μM, 48 hours): not AG490 significantly diminished | effect on number of CPCs in conditioned media from fibroblasts ([1]; 10 μM, 48 hours): inhibitory effect | effect on number of CPCs in conditioned media from p75MSCs ([1]; 10 μM, 48 hours): inhibitory effect | effect on number of CPCs in serum-free medium ([1]; 10 μM, 48 hours): significantly reduced | cell number ratio to control cell number ([1]; 10 μM): 43.4±2.4% | effect on protective effects of conditioned media during hypoxia [2]: inhibited the protective effects

COc1cccc(-c2cc(=O)c3ccccc3o2)c1N [PD98059]
effect on number/growth of CPCs in MSC conditioned media [1]: did not block
